The structures appear in SMILES notation.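 Protocol summary: plate cells (96-well), add compound at 5 concentrations, incubate 48 h, interpolate endpoints linearly. GI50 = concentration required for 50% inhibition of growth. TGI: total growth inhibition.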

This is an account of results in PubChem BioAssay (NCI).

Among the test systems are HL-60(TB) leukemia; ACHN renal; M14 melanoma; COLO 205 colon; SK-MEL-5 melanoma; UO-31 renal; T-47D breast.
Holding throughout (assay): NCI-60 cell line screen, 48 h

For `COc1ccc(Nc2c3ccccc3nc3ccccc23)cc1`, the GI50 was 1.69 µM in the test on HL-60(TB) leukemia; 1.28 µM in the test on ACHN renal; 0.735 µM in the test on M14 melanoma; 0.52 µM with COLO 205 colon; 1.1 µM in the test with SK-MEL-5 melanoma; 1.21 µM in the test with UO-31 renal. Besides, the GI50 in the test on T-47D breast was 2.37 µM. Besides, the TGI came out at 4.1 µM with HL-60(TB) leukemia; 5.68 µM with ACHN renal; 13.6 µM in the test on M14 melanoma; 1.85 µM in the test with COLO 205 colon; 4.2 µM with SK-MEL-5 melanoma; 5.27 µM with UO-31 renal. In the test with T-47D breast, the TGI came out at 14.3 µM.

For `CC1(C)[C@@H](O[C@@H]2OC[C@@H](O[C@@H]3O[C@H](CO)[C@@H](O)[C@H](O)[C@H]3O[C@@H]3OC[C@@H](O)[C@H](O)[C@H]3O)[C@H](O)[C@H]2O[C@@H]2O[C@H](CO)[C@@H](O)[C@H](O)[C@H]2O)CC[C@]2(C)[C@H]3CC[C@]45OC[C@@]6(CC[C@](C)(C=O)C[C@H]64)[C@H](O)C[C@@]5(C)[C@]3(C)CC[C@@H]12`, the GI50 in the test on HL-60(TB) leukemia was 1.04 µM; in the test on ACHN renal, 0.824 µM; in the test on M14 melanoma it was 0.925 µM; in the test with COLO 205 colon, 1.02 µM; in the test on SK-MEL-5 melanoma, 2.8 µM; with UO-31 renal, 0.649 µM. Also, the GI50 in the test with T-47D breast was 1.52 µM. In addition, the TGI in the test with HL-60(TB) leukemia was found to be 2.21 µM; in the test with ACHN renal, 1.54 µM; with M14 melanoma it was 1.81 µM; in the test on COLO 205 colon it was 2.01 µM; in the test with SK-MEL-5 melanoma, 5.36 µM; in the test on UO-31 renal, 1.32 µM. Moreover, in the test with T-47D breast, the TGI was found to be 5 µM.

For the compound `CCNC(=O)c1cc2c(-c3cc(C(C)(C)O)ccc3Oc3c(C)cc(F)cc3C)cn(C)c(=O)c2[nH]1`, the GI50 in the test on HL-60(TB) leukemia is 0.393 µM; in the test on ACHN renal, 2.15 µM; in the test on M14 melanoma, 1.46 µM; in the test on COLO 205 colon, 0.507 µM; with SK-MEL-5 melanoma it was 2.09 µM; with UO-31 renal, 0.1 µM. Further, the GI50 in the test on T-47D breast is 1.08 µM. In addition, the TGI with HL-60(TB) leukemia is 4.88 µM; in the test with ACHN renal it was 12.1 µM; in the test on M14 melanoma it was 14.2 µM; in the test with COLO 205 colon, 2.84 µM; with SK-MEL-5 melanoma it was 6.89 µM; with UO-31 renal it was 10.9 µM. In the test on T-47D breast, this compound gave a TGI of 18 µM.

Turning to `Cn1ccnc1C(=O)/C=C/c1ccccc1`, the GI50 is 2.79 µM with HL-60(TB) leukemia; 4.53 µM with ACHN renal; 3.41 µM with M14 melanoma; 5.38 µM in the test on COLO 205 colon; 2.92 µM with SK-MEL-5 melanoma; 4.69 µM with UO-31 renal. For the same compound, in the test on T-47D breast, the GI50 is 2.78 µM. Moreover, the TGI in the test on HL-60(TB) leukemia worked out at 7.73 µM; in the test on ACHN renal, 20.3 µM; with M14 melanoma it was 10.4 µM; with COLO 205 colon it was 18 µM; with SK-MEL-5 melanoma, 12.5 µM; in the test with UO-31 renal, 71.4 µM. This compound also showed a TGI in the test with T-47D breast of 7.35 µM.

Consider `N#Cc1c(N)nc(N2CCOCC2)c(C#N)c1-c1cccnc1`, for which the GI50 with HL-60(TB) leukemia is 95.6 µM; with ACHN renal, 48.7 µM; in the test with M14 melanoma, 71.2 µM; in the test with COLO 205 colon, 36 µM; with SK-MEL-5 melanoma, more than 100 µM; in the test with UO-31 renal, 24.1 µM. In the test with T-47D breast, the GI50 was 34 µM. Further, the TGI in the test with HL-60(TB) leukemia was more than 100 µM; with ACHN renal it was more than 100 µM; with M14 melanoma, more than 100 µM; in the test on COLO 205 colon it was 96.2 µM; with SK-MEL-5 melanoma it was more than 100 µM; in the test with UO-31 renal, more than 100 µM. The compound also showed a TGI with T-47D breast of 66.7 µM.

With `NC(=O)c1cc(-c2ccc(F)cc2)cc(-c2ccncc2)c1N`, the GI50 was more than 25 µM in the test with HL-60(TB) leukemia; more than 25 µM with ACHN renal; more than 25 µM in the test on M14 melanoma; more than 25 µM with COLO 205 colon; more than 20.2 µM in the test on SK-MEL-5 melanoma; 7.88 µM with UO-31 renal. The GI50 in the test with T-47D breast is more than 25 µM. Besides, the TGI in the test on HL-60(TB) leukemia, in the test with ACHN renal, with M14 melanoma, in the test with COLO 205 colon, in the test with SK-MEL-5 melanoma and with UO-31 renal was more than 25 µM in each case. The compound also gave a TGI in the test on T-47D breast of more than 25 µM.

Take `CC(=Nc1ccccc1)C1=C(O)C(Cc2ccccc2)NC1=O` (stereo unspecified): the GI50 is 0.0265 µM with HL-60(TB) leukemia; 0.0625 µM with ACHN renal; 0.0248 µM with M14 melanoma; 0.0279 µM with COLO 205 colon; 0.0446 µM in the test with SK-MEL-5 melanoma; 0.0832 µM with UO-31 renal. The GI50 with T-47D breast is more than 100 µM. The TGI in the test on HL-60(TB) leukemia was 0.0671 µM; in the test with ACHN renal, more than 100 µM; in the test on M14 melanoma it was 0.102 µM; in the test with COLO 205 colon, 0.0824 µM; in the test on SK-MEL-5 melanoma it was 2.63 µM; in the test with UO-31 renal, more than 100 µM. In the test on T-47D breast, this compound had a TGI of more than 100 µM.

On to `CC(=O)O[C@]1(C(C)=O)CC[C@H]2[C@@H]3C=C(C)C4=CC(=O)CC[C@]4(C)[C@H]3CC[C@@]21C`, for which the GI50 in the test with HL-60(TB) leukemia was 12.8 µM; in the test with ACHN renal, more than 74.1 µM; with M14 melanoma it was more than 85.6 µM; in the test on COLO 205 colon, more than 100 µM; in the test on SK-MEL-5 melanoma, 56.3 µM; in the test with UO-31 renal, more than 100 µM. The GI50 in the test on T-47D breast was more than 64.7 µM. Besides, the TGI with HL-60(TB) leukemia is 61.6 µM; with ACHN renal, more than 100 µM; in the test with M14 melanoma, more than 100 µM; in the test on COLO 205 colon, more than 100 µM; in the test on SK-MEL-5 melanoma, more than 100 µM; in the test with UO-31 renal it was more than 100 µM. In addition, the TGI in the test on T-47D breast is more than 100 µM.

Regarding `CC1OC(OC2C(O[C@H]3CC[C@@]4(C)C(=CC[C@H]5[C@@H]6C[C@@H]7O[C@]8(CC[C@H](C)CN8)[C@@H](C)[C@@H]7[C@@]6(C)CC[C@@H]54)C3)OC(CO)C(O)C2OC2OC(CO)C(O)C(O)C2O)C(O)C(O)C1O` (stereo partly specified), the TGI in the test with HL-60(TB) leukemia turned out to be 32.6 µM; with ACHN renal, 31.4 µM; in the test with M14 melanoma it was 37.8 µM; in the test with COLO 205 colon it was 31.8 µM; in the test with SK-MEL-5 melanoma it was 33.6 µM; in the test with UO-31 renal, 33.2 µM. The TGI in the test with T-47D breast came out at 39 µM.

On to `COc1cc(OC)c(/C=C/c2cnc3ccccc3n2)c(OC)c1`, for which the TGI with HL-60(TB) leukemia was more than 10 µM; with ACHN renal, more than 10 µM; in the test with M14 melanoma, more than 10 µM; with COLO 205 colon it was more than 10 µM; in the test with SK-MEL-5 melanoma, more than 10 µM; with UO-31 renal, 1.56 µM. Also, the TGI in the test on T-47D breast was more than 10 µM.
